Values of other authors, collected in patent US9399681B2, “Amatoxin-conjugates with improved linkers” (Heldelberg Pharma GmbH, priority 2010, dated 2016).
pKd: −log10 of the molar value.

Molecular target: DNA-dependent RNA polymerase II of mammalian cells (Homo sapiens, UniProt P24928)
Settings: background statement, non-covalent complex; read-out: KD of the complex between amanitin and RNA-polymerase II

Substance: amanitin
- pKd: 8.52
